Each structure is given as a SMILES string.

The experiment deals with DNA gyrase (Escherichia coli, UniProt P0AES4+P0AES6). Description: DNA supercoiling gel assay. The experiment is classed as biochemical.
Sequence of DNA gyrase (P0AES4 2-875, one chain of several): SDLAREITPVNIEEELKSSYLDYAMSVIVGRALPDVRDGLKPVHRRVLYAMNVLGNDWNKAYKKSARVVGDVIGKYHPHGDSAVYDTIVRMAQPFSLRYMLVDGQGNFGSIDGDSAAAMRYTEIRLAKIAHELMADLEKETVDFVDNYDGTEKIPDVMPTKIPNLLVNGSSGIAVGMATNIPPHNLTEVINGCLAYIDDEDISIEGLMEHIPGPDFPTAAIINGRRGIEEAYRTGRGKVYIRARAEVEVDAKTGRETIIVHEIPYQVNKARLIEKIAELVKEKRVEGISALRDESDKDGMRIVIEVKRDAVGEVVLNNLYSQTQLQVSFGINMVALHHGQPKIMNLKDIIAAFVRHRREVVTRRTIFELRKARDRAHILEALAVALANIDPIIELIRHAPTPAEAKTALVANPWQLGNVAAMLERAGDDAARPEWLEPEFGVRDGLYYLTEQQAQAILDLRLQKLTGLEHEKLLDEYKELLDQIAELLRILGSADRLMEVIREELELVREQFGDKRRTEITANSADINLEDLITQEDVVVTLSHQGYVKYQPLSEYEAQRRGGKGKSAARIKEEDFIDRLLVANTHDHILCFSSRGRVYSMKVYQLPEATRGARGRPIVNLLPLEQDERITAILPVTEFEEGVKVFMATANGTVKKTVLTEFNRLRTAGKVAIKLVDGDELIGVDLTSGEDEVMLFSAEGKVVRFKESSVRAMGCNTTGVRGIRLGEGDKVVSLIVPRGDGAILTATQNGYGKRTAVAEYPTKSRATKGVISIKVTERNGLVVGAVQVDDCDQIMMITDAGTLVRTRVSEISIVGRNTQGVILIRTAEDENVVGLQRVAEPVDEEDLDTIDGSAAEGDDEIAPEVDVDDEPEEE

By IC50 is commonly meant the concentration that gives 50% inhibition. `O=c1c(-c2ccc(O)cc2)coc2cc(O)ccc12` [daidzein]: the IC50 is 165 nM. Compound `COc1c2occc2c(OC)c2c(=O)cc(C)oc12` [khellin] showed an IC50 of 3160 nM.

The values above are taken from article PMC10173323 (ACS Omega, 2023).
